Measurements as given in patent publication US12559474B2, “Triazine derivatives having virus replication inhibitory activity and pharmaceutical composition comprising the same” (priority 2021, dated 2026).
Where “and” joins values, the source holds several entries; their conditions need not be identical. Equal entries are not always repeated. Where two headings read alike, the source gives them in different places.

Columns and labels:
SARS-CoV-2 = experiment: microbe, parasite or virus in culture; assay type: cell-based; settings: for EC50: Severe acute respiratory syndrome coronavirus 2, VeroE6/TMPRSS2, 72 h, 50% SARS-CoV-2 infected cell death inhibitory concentration, VeroE6/TMPRSS2 cells, 3 days culture; for coronavirus replication inhibitory activity: at concentrations up to 50 μM, tested as in Test Example 1 (Reference Example 1)
SARS-CoV-2 3CL protease = SARS-CoV-2 3CL protease (Severe acute respiratory syndrome coronavirus 2, UniProt P0DTD1); experiment: biochemical

| Structure (SMILES) | IC50 (SARS-CoV-2 3CL protease; IC50) | further results |
| --- | --- | --- |
| Cn1cnc(Cn2c(=O)nc(Nc3cc4cn(C)nc4cc3Cl)n(Cc3cc(F)ccc3F)c2=O)n1 [II-0208] | – | EC50 (SARS-CoV-2; class symbols): 1000 to 10000 nM |
| Cc1cncc(-n2c(=O)[nH]/c(=N\c3cc4cn(C)nc4cc3Cl)n(Cc3cc(F)c(F)c(F)c3)c2=O)c1 [Compound I-0113] | – | EC50 (SARS-CoV-2; CellTiter-Glo 2.0): 177 nM |
| COc1ncccc1Cn1c(=O)[nH]/c(=N\c2ccc(OC(C)C)c(F)c2)n(Cc2ccc(Cl)cc2)c1=O [Compound I-0683, reference compound] | – | coronavirus replication inhibitory activity (SARS-CoV-2): did not show coronavirus replication inhibitory activity |
| CC(C)Oc1ccc(/N=c2\[nH]c(=O)n(Cc3ccc[nH]c3=O)c(=O)n2Cc2ccc(Cl)cc2)cc1F [Compound I-0685, reference compound] | – | coronavirus replication inhibitory activity (SARS-CoV-2): did not show coronavirus replication inhibitory activity |
| CC(C)Oc1ccc(/N=c2\[nH]c(=O)n(Cc3ncn[nH]3)c(=O)n2Cc2ccc(Cl)cc2)cc1F [Compound I-0679, reference compound] | – | coronavirus replication inhibitory activity (SARS-CoV-2): did not show coronavirus replication inhibitory activity |
| CNc1nc2ccc(Nc3nc(=O)n(-c4cncc(Cl)c4)c(=O)n3Cc3ccc(F)c(C#N)c3)cc2s1 [II-0399] | – | EC50 (SARS-CoV-2; class symbols): < 1000 nM |
| O=C(O)c1ccc(Oc2ccc(/N=c3\[nH]c(=O)n(-c4cccs4)c(=O)n3Cc3ccc(Cl)cc3)cc2)nc1 [Compound I-575, reference compound] | – | coronavirus replication inhibitory activity (SARS-CoV-2): did not show coronavirus replication inhibitory activity |
| Cc1nc2ccc(/N=c3\[nH]c(=O)n(C[C@H]4COC(C)(C)O4)c(=O)n3Cc3ccc(Cl)cc3)cc2s1 [Compound I-1603, reference compound] | – | coronavirus replication inhibitory activity (SARS-CoV-2): did not show coronavirus replication inhibitory activity |
| CC(=O)Nc1nc2ccc(Nc3nc(=O)n(-c4cncc5ccccc45)c(=O)n3Cc3ccc(F)c(C#N)c3)cc2s1 [II-0170] | < 100 nM | – |
| Cn1cc2cc(Nc3nc(=O)n(Cc4c[nH]c(=O)[nH]c4=O)c(=O)n3Cc3cc(F)c(F)c(F)c3)c(Cl)cc2n1 [Compound I-0405] | < 100 nM | – |
| Cn1cnc(Cn2c(=O)nc(Nc3cc4cn(CC(=O)NC5CC5)nc4cc3Cl)n(Cc3cc(Cl)c(F)cc3F)c2=O)n1 [II-0148] | < 100 nM | – |
| CNC(=O)COc1ccc(Nc2nc(=O)n(Cc3ccc[nH]c3=O)c(=O)n2Cc2cc(F)c(F)c(F)c2)c(Cl)c1 [Compound I-0463] | < 100 nM | – |
| Cn1cnc(Cn2c(=O)nc(Nc3cc4cn(CC(=O)N5CCCCC5)nc4cc3Cl)n(Cc3cc(Cl)c(F)cc3F)c2=O)n1 [II-0134] | < 100 nM | – |
| COC(=O)NC12CC(Nc3nc(=O)n(Cc4ccc[nH]c4=O)c(=O)n3Cc3cc(F)c(F)c(F)c3)(C1)C2 [II-0062] | < 100 nM | – |
| O=c1[nH]cccc1Cn1c(=O)nc(NC2CC(F)(F)C2)n(Cc2cc(F)c(F)c(F)c2)c1=O [II-0231] | 880 nM | – |
| CN(C(=O)Cn1cc2cc(Nc3nc(=O)n(Cc4ncn(C)n4)c(=O)n3Cc3cc(Cl)c(F)cc3F)c(Cl)cc2n1)C1CC1 [II-0146] | < 100 nM | – |
| CN1Cc2cc(Nc3nc(=O)n(Cc4ccc[nH]c4=O)c(=O)n3Cc3cc(F)c(F)c(F)c3)ccc2C1=O [Compound I-0438] | 740 nM and 100 to 1000 nM | – |
| Cn1cnc(Cn2c(=O)nc(Nc3cc4cn(CC5(N)CC5)nc4cc3Cl)n(Cc3cc(Cl)c(F)cc3F)c2=O)n1 [II-0557] | – | IC50 (SARS-CoV-2 3CL protease; 50% SARS-CoV-2 3CL protease inhibitory concentration, given as class symbols, read-out: IC50): < 100 nM |
| Cc1cncc(-n2c(=O)nc(Nc3ccc(N=S(C)(C)=O)cc3Cl)n(Cc3cc(Cl)ccc3C)c2=O)c1 [II-0625] | < 100 nM | – |
| Cc1ccc(Cn2c(=O)nc(Nc3cccc(C(F)(F)F)c3)n(Cc3ccc(Cl)c(Cl)c3)c2=O)cc1 [Compound I-066, reference compound] | – | coronavirus replication inhibitory activity (SARS-CoV-2): did not show coronavirus replication inhibitory activity |

| Structure (SMILES) | IC50 (SARS-CoV-2 3CL protease; IC50) | further results |
| --- | --- | --- |
| Cc1cn2cc(Nc3nc(=O)n(Cc4ccc[nH]c4=O)c(=O)n3Cc3cc(F)c(F)c(F)c3)c(Cl)cc2n1 [Compound I-0441] | < 100 nM | – |
| O=c1[nH]cccc1Cn1c(=O)nc(Nc2ccc(O)cc2)n(Cc2cc(F)c(F)c(F)c2)c1=O [Compound I-0027] | < 100 nM | – |
| Cc1cncc(-n2c(=O)nc(Nc3ccc4nnn(C)c4c3)n(Cc3ccc(F)c(C#N)c3)c2=O)c1 [II-0357] | < 100 nM | – |
| COc1ccc(Nc2nc(=O)n(Cc3cc(=O)[nH][nH]c3=O)c(=O)n2Cc2cc(F)c(F)c(F)c2)cc1 [Compound I-0102] | 850 nM and 100 to 1000 nM | – |
| O=C1OCCN1c1ccc(Nc2nc(=O)n(Cc3ccc[nH]c3=O)c(=O)n2Cc2cc(F)c(F)c(F)c2)c(Cl)c1 [Compound I-0397] | 730 nM and 100 to 1000 nM | – |
| Cc1cncc(-n2c(=O)nc(Nc3cc(C)c(N=S4(=O)CCCC4)cc3Cl)n(Cc3cc(Cl)ccc3C)c2=O)c1 [II-0623] | < 100 nM | – |
| Cc1cncc(-n2c(=O)nc(Nc3cc4cn(C)nc4cc3Cl)n(Cc3cc(F)c(F)cc3F)c2=O)c1 [Compound I-0361] | – | EC50 (SARS-CoV-2; CellTiter-Glo 2.0): 131 nM |
| Cc1cncc(-n2c(=O)nc(Nc3cc4sc(NCC5CC5)nc4cc3Cl)n(Cc3ccc(F)c(C#N)c3)c2=O)c1 [II-0081] | < 100 nM | – |
| CCNc1nc2cc(Cl)c(Nc3nc(=O)n(Cc4ncn(C)n4)c(=O)n3Cc3cc(Cl)c(F)cn3)cc2s1 [II-0340] | < 100 nM | – |
| Cc1nc2cc(Cl)c(Nc3nc(=O)n(Cc4cc(Cl)c[nH]c4=O)c(=O)n3Cc3cc(F)c(F)c(F)c3)cc2n1C [Compound I-0078] | < 100 nM | – |
| Cc1cncc(-n2c(=O)nc(Nc3cc(F)c(N=S4(=O)CCCC4)cc3Cl)n(Cc3cc(Cl)ccc3C)c2=O)c1 [II-0620] | < 100 nM | – |
| Cc1ccc(Cl)cc1Cn1c(NC23CC(Nc4ncccn4)(C2)C3)nc(=O)n(Cc2ccncc2C)c1=O [II-0630] | < 100 nM | – |
| CNc1nc2cc(Cl)c(Nc3nc(=O)n(Cc4ncn(C)n4)c(=O)n3Cc3ccc(F)c(C#N)c3)cc2s1 [II-0603] | < 100 nM | – |
| COc1ccc(Nc2nc(=O)n(Cc3cn(CCO)cn3)c(=O)n2Cc2cc(F)c(F)c(F)c2)cc1 [Compound I-0415] | 3000 nM and 1000 to 10000 nM | – |
| Cn1cnc(Cn2c(=O)nc(Nc3cc4cn(CC(=O)N5CCCC5)nc4cc3Cl)n(Cc3cc(Cl)c(F)cc3F)c2=O)n1 [II-0138] | < 100 nM | – |
| COc1ccc(Nc2nc(=O)n(Cc3cc(C)on3)c(=O)n2Cc2cc(F)c(F)c(F)c2)cc1 [Compound I-0334] | 870 nM and 100 to 1000 nM | – |
| CN1CC[C@H](n2cc3cc(Nc4nc(=O)n(Cc5ncn(C)n5)c(=O)n4Cc4cc(Cl)c(F)cc4F)c(Cl)cc3n2)C1=O [II-0447] | < 100 nM | – |
| Cn1cnc(Cn2c(=O)nc(NC34CC(Nc5ncc(F)cn5)(C3)C4)n(Cc3cc(F)c(F)c(F)c3)c2=O)n1 [II-0473] | < 100 nM | – |
| Cc1cncc(-n2c(=O)nc(Nc3ccc(N=S4(=O)CCCC4)cc3F)n(Cc3cc(Cl)ccc3C)c2=O)c1 [II-0616] | < 100 nM | – |
| CNC(=O)Cn1c(=O)[nH]/c(=N\c2ccc(OC(F)F)cc2C)n(Cc2cc(F)c(F)c(F)c2)c1=O [II-0331] | 1000 to 10000 nM | – |

| Structure (SMILES) | IC50 (SARS-CoV-2 3CL protease; IC50) | further results |
| --- | --- | --- |
| CN(C)C(=O)Cn1cc2cc(Nc3nc(=O)n(Cc4ncn(C)n4)c(=O)n3Cc3cc(Cl)c(F)cc3F)c(Cl)cc2n1 [II-0276] | < 100 nM | – |
| CNC(=O)Cn1cc2cc(Nc3nc(=O)n(Cc4ncn(C)n4)c(=O)n3Cc3cc(F)c(F)c(Cl)c3)c(Cl)cc2n1 [II-0145] | < 100 nM | – |
| Cn1cnc(Cn2c(=O)nc(Nc3cc4cn(CC(=O)N5CC(F)(F)C5)nc4cc3Cl)n(Cc3cc(Cl)c(F)cc3F)c2=O)n1 [II-0136] | < 100 nM | – |
| O=C(O)c1ccc(Oc2ccc(/N=c3\[nH]c(=O)n(-c4ccon4)c(=O)n3Cc3ccc(Cl)cc3)cc2)nc1 [Compound I-580, reference compound] | – | coronavirus replication inhibitory activity (SARS-CoV-2): did not show coronavirus replication inhibitory activity |
| Cc1cncc(-n2c(=O)nc(Nc3ccc(N=S4(=O)CCCC4)cc3Cl)n(Cc3cc(Cl)ccc3C)c2=O)c1 [II-0624] | < 100 nM | – |
| O=c1[nH]cccc1Cn1c(=O)nc(NC23CC(Nc4ccccn4)(C2)C3)n(Cc2cc(F)c(F)c(F)c2)c1=O [II-0476] | < 100 nM | – |
| O=c1[nH]cccc1Cn1c(=O)nc(Nc2ccc(F)cc2Cl)n(Cc2cc(F)c(F)c(F)c2)c1=O [Compound I-0001] | 100 to 1000 nM | – |
| Cn1cnc(Cn2c(=O)nc(Nc3cc4cn(C)nc4cc3Cl)n(Cc3cc(Cl)cc(F)c3F)c2=O)n1 [II-0641] | < 100 nM | – |
| COc1ccc(Nc2nc(=O)n(Cc3cc(-c4cn(C)cn4)c[nH]c3=O)c(=O)n2Cc2cc(F)c(F)c(F)c2)cc1 [Compound I-0105] | < 100 nM | – |
| Cn1cnc(Cn2c(=O)nc(Nc3cc4cn(C)nc4cc3Cl)n(CC3CCC(F)(F)CC3)c2=O)n1 [II-0607] | 100 to 1000 nM | – |
| Cn1cnc(Cn2c(=O)nc(Nc3cc4c(=O)n(C)cnc4cc3Cl)n(Cc3cc(F)c(F)cc3F)c2=O)n1 [II-0013] | < 100 nM | – |
| Cn1cnc(Cn2c(=O)nc(Nc3cc4cn(C)nc4cc3Cl)n(CC3CCCCC3)c2=O)n1 [II-0606] | 100 to 1000 nM | – |
| CN(C)C(=O)Cn1cc2cc(Nc3nc(=O)n(Cc4ccc[nH]c4=O)c(=O)n3Cc3cc(F)c(F)c(F)c3)c(Cl)cc2n1 [Compound I-0367] | < 100 nM | – |
| Cc1nc2cc(Cl)c(Nc3nc(=O)n(Cc4ccc[nH]c4=O)c(=O)n3Cc3cc(F)c(F)c(F)c3)cc2n1C [Compound I-0439] | < 100 nM | – |
| Cc1cncc(-n2c(=O)nc(Nc3cc(Cl)c(N=S4(=O)CCCC4)cc3Cl)n(Cc3cc(Cl)ccc3C)c2=O)c1 [II-0619] | < 100 nM | – |
| Cn1cnc(Cn2c(=O)nc(Nc3cc4cn(C)nc4cc3Cl)n(Cc3cc(Cl)cc(F)c3OCCO)c2=O)n1 [II-0642] | < 100 nM | – |
| Cn1cnc(Cn2c(=O)cc(Nc3cc4cn(C)nc4cc3Cl)n(Cc3ccc(F)c(C#N)c3)c2=O)n1 [II-0379] | < 100 nM | – |
| COc1ccc(Nc2nc(=O)n(Cc3cc(C(N)=O)c[nH]c3=O)c(=O)n2Cc2cc(F)c(F)c(F)c2)cc1 [Compound I-0088] | < 100 nM | – |
| O=c1[nH]cccc1Cn1c(=O)nc(NC(c2ccccc2)c2ccccc2O)n(Cc2cc(F)c(F)c(F)c2)c1=O (stereo not drawn) [II-0229] | 250 nM | – |
| Cn1cnc(Cn2c(=O)nc(Nc3cc4sc(NCC(F)F)nc4cc3Cl)n(Cc3ccc(F)c(C#N)c3)c2=O)n1 [II-0502] | < 100 nM | – |
